# Values of other authors as cited in patent publication US10716831B2, “Methods for inhibiting infectious peritonitis” (priority 2014, dated 2020).
# B1: recombinant murine GM-CSF: recombinant murine GM-CSF used in rat and mouse peritonitis studies (protein, UniProt P01587 18-141, looked up)
# Granulocyte-macrophage …: APTRSPITVTRPWKHVEAIKEALNLLDDMPVTLNEEVEVVSNEFSFKKLTCVQTRLKIFEQGLRGNFTKLKGALNMTASYYQTYCPPTPETDCETQVTTYADFIDSLKTFLTDIPFECKKPGQK
# Columns and labels:
# [1] = in vivo
# [2] = tested on: Pseudomonas aeruginosa; conditions: controlled clinical trials, orally or intravenously administered, maximum
# [3] = not given; remark: listed apart in the source
# [4] = tested on: polymorphonuclear leukocytes
# [5] = tested on: strains of organisms from the susceptible genera
# [6] = tested on: infectious peritonitis; conditions: combination with imipenem; Pachón-Ibáñez et al 2011
# [7] = tested on: Staphylococcus, Streptococcus, Neisseria, Escherichia, Proteus, Serratia, Salmonella, Shigella, Pseudomonas, Haemophilus and Vibrio; conditions: aerobic genera
# [8] = tested on: Klebsiella and Enterobacter spp.
# [9] = tested on: Peptostreptococcus (including Peptoniphilus, Finegoldia and Anaerococcus) and Fusobacterium; conditions: anaerobic genera
# [10] = tested on: bacteria of the B. fragilis group
# [11] = intraperitoneal compared with intravenous administration; Tobudic et al 2012
# [12] = tested on: resistant bacterial strains; conditions: controlled clinical trials, orally or intravenously administered; overall
# [13] = tested on: monocytes; conditions: in vitro; Volk et al 1991
# [14] = tested on: cecal ligation and puncture; conditions: mice, subcutaneous injection; Gennari et al 1994
# [15] = tested on: bacterial peritonitis; conditions: mice, intraperitoneal for 5 days; Austin et al 1995
# [16] = tested on: non-traumatic generalized abdominal sepsis; conditions: subcutaneous, with systemic antibiotics; Orozco et al 2006
# [17] = third and last day of treatment
# [18] = tested on: peritoneal macrophages; conditions: intraperitoneal; Selgas et al 1996
# [19] = tested on: peritonitis induced by cecal ligation and puncture; conditions: rats, systemic; Toda et al 1994
# [20] = tested on: fecal peritonitis; conditions: mice, prophylactic administration; Barsig et al 1996
molecule,measurement,setting,value
C[C@@H]1O[C@@H]1P(=O)(O)O [Fosfomycin disodium],solubility in water,,highly soluble in water
same,pH of 5% solution,,9.0-10.5
same,local or oral tolerability,[1],locally irritant if un-neutralized
C[C@@H]1O[C@@H]1P(=O)(O)O.NC(CO)(CO)CO [Fosfomycin trometamol],solubility in water,,highly soluble in water
same,pH of 5% solution,,3.5-5.5
same,local or oral tolerability,[1],well tolerated when given orally
"C[C@@H]1O[C@@H]1P(=O)(O)O [fosfomycin, [(2R,3S)-3-methyloxiran-2-yl]phosphonic acid]",appearance of resistant bacterial strains,[2],15%
same,eosinophilia,[3]; Gobernado 2003,0.2%
same,transient rashes (allergy),[3]; Gobernado 2003,0.3 % of cases
same,transiently raised liver enzymes,[3]; Gobernado 2003,0.3 % of cases
same,toxicity to mammalian cells and organs,[3]; fosfomycin disodium at intravenous doses of up to 0.5 g/kg/day in human patients,remarkably non-toxic
same,concentration in polymorphonuclear leukocytes relative to extracellular fluid,[4],twice those of the extracellular fluid
same,tested strains showing synergistic effect,"[5]; early studies, various antibiotic combinations",70-100%
same,synergy rates,[5]; subsequent more extensive studies,36-74%
same,synergy and in-vivo efficacy with imipenem,[6],showed synergy and high in-vivo efficacy
same,antibacterial activity,[7],highly active
same,antibacterial activity,[8],active
same,antibacterial activity,[9],active
same,antibacterial activity,[10],not against
same,intraperitoneal levels,[11],superior intraperitoneal levels
same,appearance of resistant bacterial strains,[12],3.0%
GM-CSF: cytokine of the colony-stimulating factor family; mature human protein SEQ ID NO: 2,loss of HLA-DR antigen expression to <20%,[13],reversed
same,mortality,[14],significantly reduced
same,survival,[15],improved survival
same,rate of infectious complications and length of hospitalization,[16],reduced
same,minor flu-like symptoms,[17],2 of 8
same,peritoneal macrophage numbers,[18],large increase
same,peritoneal transport of water or solutes,[18],did not affect
B1,survival rate,[19],did not improve
same,leukocyte numbers and protection,[20],neither augmented leukocyte numbers nor protected mice
